Measurements taken from patent publication EP2116236A1, “Bisbenzamidine derivatives for use as antioxidant” (Université de Mons-Hainaut, priority 2008, dated 2009).

Tests used:
[1] = superoxide dismutase activity: inhibition of pyrogallol auto-oxidation; assay type: biochemical; conditions: for Percent inhibition of the rate of pyrogallol auto-oxidation: compound 0.5 mM, pyrogallol 0.750 mM, TRIS saline buffer pH 7.4, first two minutes, average of three measures
Method: The pyrogallol auto-oxidation was measured at 420 nm according to the procedure Marklund & Marklund as reported in Vamecq et al. (2003). The incubation medium comprised TRIS saline buffer at pH 7.4 (5 mM TRIS, 50 mM NaCl) with either the vehicle (DMSO) or one of the compounds (final concentration 0.5 mM ) dissolved in DMSO. The reaction was triggered by the addition of pyrogallol (0.750 mM).
The results are given as percent inhibition of the rate of pyrogallol auto-oxidation measured during the first two minutes.

audiogenic seizure = audiogenic seizure test in magnesium deficient animals; assay type: in vivo
Method: (§1) The tests were performed in rodents as described in J. Vamecq et al. Eur. J. Neurosc. 2003, 18, 1110. The results are shown in Table 1, wherein ScPtz refers to subcutaneous pentylenetetrazol, MES refers to Maximal Electroshock Seizures, MCS refers to Maximal Clonic Seizures, and ND means "not determined". The results are given as ED50 in mg/kg.

chemical seizure (scPtz) = assay: subcutaneous pentylenetetrazol (scPtz) induced chemical seizure test; assay type: in vivo; conditions: Mus musculus, ip
Method: as §1

[2] = system: electrical seizure MCS (6 Hz); assay: Maximal Clonic Seizures (MCS) 6 Hz electroshock test; assay type: in vivo
Method: as §1

[3] = glutathione peroxidase activity: stimulation of peroxide-induced oxidation of reduced glutathione; assay type: biochemical; conditions: for Effects of the compounds on the oxidation rate (%): average glutathione oxidation rate, vehicle control = 100 %, 2 mM reduced glutathione, 10 µl 50 mM compound in 1 mL, pH 7.4; for Glutathione peroxidase activity: 2 mM reduced Glutathione
Method: The activity of glutathione peroxidase compounds refers to the stimulation by the compounds of the peroxide-induced oxidation of reduced glutathione (H2O2, t-butyl-hydroperoxide or cumene hydroperoxide). […] The formation of oxidized glutathione results in the oxidation of NADPH in the presence of glutathione reductase. The NADPH oxidation is then measured and reflects the formation of oxidized glutathione. In view of the absorbance of the compounds, NADPH oxidation was measured by the fluorescent emission at 466 nm when excited at 366 nm, which a corrected quenching.
The glutathione oxidation was measured in the presence of NADPH and glutathione reductase in 1 ml cell by fluorimetry (λexcitation = 366 nm and λemission= 466 nm). The cell contained 1 mL of 10 mM phosphate buffer pH 7.4, 0.25 mM NADPH, 10 µl DMSO (or 10 µl 50 mM compound dissolved in DMSO), 2 mM reduced glutathione and two units of glutathione reductase (Saccharomyces cerevisiae). The reaction was triggered by the addition of peroxide (5 mM t-butyl-hydroperoxide). A stimulation of the rate of peroxide-induced oxidation of glutathione was considered as glutathione peroxidase activity.

[4] = system: electrical seizure MES (50 Hz); assay: Maximal Electroshock Seizures (MES) test; assay type: in vivo; conditions: Mus musculus, ip
Method: as §1

Compound | Percent inhibition of the rate of pyrogallol auto-oxidation [1] | scavenging activity toward the superoxide anion ([1]; result in words) | audiogenic seizure (mouse ip) ED50 (audiogenic seizure) | ED50 (audiogenic seizure; mouse ip) | ED50 (chemical seizure (scPtz)) | electrical seizure MCS (6 Hz) (mouse ip) ED50 [2] | ED50 ([2]; Mus musculus, ip) | Effects of the compounds on the oxidation rate (%) ([3]; 5 mM t-butyl-hydroperoxide) | Glutathione peroxidase activity ([3]; 2.5 mM cumene hydroperoxide) | Glutathione peroxidase activity ([3]; 2.5 mM hydrogen peroxide) | Glutathione peroxidase activity ([3]; 5 mM hydrogen peroxide) | Glutathione peroxidase activity ([3]; 5 mM t-butyl-hydroperoxide) | ED50 [4]
N=C(N)c1ccc(N)cc1 [4-aminobenzaminidine, 4-aminobenzamidine, reference compound] | < 5% | does not have any scavenging activity |  |  |  |  |  |  |  |  |  |  | 
N=C(N)c1ccc(NCCNc2ccc(C(=N)N)cc2)cc1 [Compound 2, 4,4'-(1,2-ethanediyldiimino)bisbenzenecarboximidamide] | 36.3% |  | active | 6.9 mg/kg | > 300 mg/kg | ED50 = 48.95 mg/kg | 60 to 100 mg/kg | < 100% |  |  |  |  | 
CN(CCN(C)c1ccc(C(=N)N)cc1)c1ccc(C(=N)N)cc1 [Compound 3, 4,4'-[1,2-ethanediyl (N,N'-dimethyl bisnitrilo)]bis(benzenecarboximidamide)] | 51.0% |  | little activity at non toxic doses |  | > 300 mg/kg |  |  | 197% | 128% | 117% | 108% | 197% | 
CN(CCNc1ccc(C(=N)N)cc1)c1ccc(C(=N)N)cc1 [Compound 4, 4,4'-(N-methyl 1,2-ethanediyldiimino)bis(benzenecarboximidamide)] | 17.5% |  | little activity at non toxic doses |  | > 100 mg/kg |  |  | 107% |  |  |  |  | > 100 mg/kg
CCN(CCNc1ccc(C(=N)N)cc1)c1ccc(C(=N)N)cc1 [Compound 5, 4,4'-(N-ethyl-1,2-ethanediyldiimino)bis(benzenecarboximidamide)] | 28.8% |  | little activity at non toxic doses |  | > 30 mg/kg |  |  | 105% |  |  |  |  | 
